# Results reported in patent US5422350A, “Nitrogen substituted acridine and cytochrome P450 inhibitors and methods of use” (priority 1992, dated 1995).
# Test system: P450 2D6
# Test: Tacrine as substrate of P450 2D6: co-incubation with quinidine in human liver microsomes
# Type: in vitro ADME
# Settings: for 1-Hydroxytacrine / Tacrine: quinidine -
# Description: U. A. Meyer, J. Gut, T. Kronbach, C. Skoda, U. T. Meier, and T. Catin, "The Molecular Mechanisms of Two Common Polymorphisms of Drug Oxidation-Evidence for Functional Changes in Cytochrome P-450 Isozymes Catalysing Bufuralol and Mephenytoin Oxidation", XENOBIOTICA, Vol 16, pp 449-464 (1986). […] PHARMACOL., Vol 37, pp 155-160 (1989).
smiles,measurement,setting,value
"Cl.Nc1c2c(nc3ccccc13)CCCC2.O [Tacrine, 1,2,3,4-tetrahydro-9-acridinamine monohydrate monohydrochloride]",catalysis by P450 2D6 of metabolism and irreversible binding,,not catalyzed by P450 2D6
same,1-Hydroxytacrine,0 min,0 nMoles per 3 mL incubate
same,Tacrine,0 min,2.13 nMoles per 3 mL incubate
same,metabolites observed,7-hydroxytacrine at incubation times through 40 min,mainly 1-hydroxytacrine with 7-hydroxytacrine also being observed
same,1-Hydroxytacrine,5 min,0.416 nMoles per 3 mL incubate
same,Tacrine,5 min,1.24 nMoles per 3 mL incubate
same,1-Hydroxytacrine,10 min,0.716 nMoles per 3 mL incubate
same,Tacrine,10 min,0.831 nMoles per 3 mL incubate
same,1-Hydroxytacrine,20 min,1.03 nMoles per 3 mL incubate
same,Tacrine,20 min,0.302 nMoles per 3 mL incubate
same,1-Hydroxytacrine,40 min,1.34 nMoles per 3 mL incubate
same,Tacrine,40 min,0 nMoles per 3 mL incubate
same,1-Hydroxytacrine,60 min,1.43 nMoles per 3 mL incubate
same,Tacrine,60 min,0 nMoles per 3 mL incubate
